The record followed here is ChEMBL document CHEMBL2086306, “Manadosterols A and B, sulfonated sterol dimers inhibiting the Ubc13-Uev1A interaction, isolated from the marine sponge Lissodendryx fibrosa” (J Nat Prod, 2012).

Assay [1] addresses Ubiquitin-conjugating enzyme E2 N/Ubiquitin-conjugating enzyme E2 variant 1 (Homo sapiens, UniProt P61088+Q13404). The assay is described as follows: Inhibition of recombinant human Ubc13-Uev1A interaction expressed in Escherichia BL21 after 1.5 hrs by ELISA. A general note: In an ELISA, binding on a coated surface is turned into a signal by an enzyme label.
Assay [2] addresses Ubiquitin-conjugating enzyme E2 N/Ubiquitin-conjugating enzyme E2 variant 1 (Homo sapiens) (UniProt Q13404+P61088). The assay is described as follows: Ratio of leucettamol A IC50 to compound IC50 for recombinant human Ubc13-Uev1A interaction expressed in Escherichia BL21.

The term IC50 denotes the point on the concentration scale where inhibition reaches its midpoint. For the compound `C=C1CC(C)(C)[C@@H](/C=C/[C@@H](C)[C@H]2CC[C@H]3[C@@H]4C[C@H](OS(=O)(=O)O)[C@H]5C[C@@H](O)CC[C@]5(C)[C@H]4CC[C@]23C)[C@H]1CC(O)[C@@H](C)[C@H]1CC[C@H]2[C@@H]3C[C@H](OS(=O)(=O)O)[C@H]4C[C@H](OS(=O)(=O)O)[C@@H](OS(=O)(=O)O)C[C@]4(C)[C@H]3CC[C@]12C` (stereo partly drawn) [MANADOSTEROL B], the IC50 in assay [1] was determined as 130 nM.

Turning to `CC1=CC(C)(C)[C@@H](/C=C\[C@@H](C)[C@H]2CC[C@H]3[C@@H]4C[C@H](OS(=O)(=O)O)[C@H]5C[C@H](O)[C@@H](OS(=O)(=O)O)C[C@]5(C)[C@H]4CC[C@]23C)[C@H]1CC[C@@H](C)[C@H]1CC[C@H]2[C@@H]3C[C@H](OS(=O)(=O)O)[C@H]4C[C@H](OS(=O)(=O)O)[C@@H](OS(=O)(=O)O)C[C@]4(C)[C@H]3CC[C@]12C` [MANADOSTEROL A], in assay [1], the IC50 was 90 nM. In addition, in assay [2], the Ratio IC50 is 1000.
